Source: patent publication US8765791B2, “Method of treating cancer using a neuropeptide Y 5R (NP Y5R) antagonist” (University Health Network, priority 2008, dated 2014)

Legend:
[1] = system: HUV-EC-C cells; test: in vitro angiogenesis assay, tube formation; format: cell-based; conditions: HUV-EC-C on ECMatrix, after 5 hours
Description: HUV-EC-C cells were purchased from ATCC and routinely cultured in Ham's F12K medium supplemented with 10% FBS, 2 mM L-glutamine, 1.5 g/L sodium bicarbonate, 0.1 mg/ml heparin and 0.03 mg/ml endothelial cell growth supplement (ECGS).
An In Vitro Angiogenesis Assay kit from Chemicon (Cat#ECL625) was used for testing HUV-EC-C tube formation. Cells were incubated on ECMatrix coated 96-well plate at 8×10^3 cells per well in growth medium with or without NPY, its antagonist MK0557, or DMSO as a control. Inhibition of in vitro endothelial tubule formation by MK0557 was quantitated from photographs after 5 hours by counting the number of tubes in the well (FIG. 7).

[2] = system: Colon cancer cells, HCT-15; test: colon cancer xenograft model (Example 8); format: in vivo, CB17-SCID mice
Description: Colon cancer cells, HCT-15, (1×10^6) were implanted in CB17-SCID mice. The mice were treated with MK0557 at 30 mg/kg or vehicle (15% of 0.5%) CMC (carboxymethylcelulose) (low viscosity) and 85% of 0.2% Tween80 in water) intraperitoneally daily for the first week followed by once every two days injections.

[3] = molecular target: T1, human NPY1R (Homo sapiens, UniProt P25929); conditions: at a concentration of 10 μM; cited from earlier work
T1 sequence (P25929 1-384): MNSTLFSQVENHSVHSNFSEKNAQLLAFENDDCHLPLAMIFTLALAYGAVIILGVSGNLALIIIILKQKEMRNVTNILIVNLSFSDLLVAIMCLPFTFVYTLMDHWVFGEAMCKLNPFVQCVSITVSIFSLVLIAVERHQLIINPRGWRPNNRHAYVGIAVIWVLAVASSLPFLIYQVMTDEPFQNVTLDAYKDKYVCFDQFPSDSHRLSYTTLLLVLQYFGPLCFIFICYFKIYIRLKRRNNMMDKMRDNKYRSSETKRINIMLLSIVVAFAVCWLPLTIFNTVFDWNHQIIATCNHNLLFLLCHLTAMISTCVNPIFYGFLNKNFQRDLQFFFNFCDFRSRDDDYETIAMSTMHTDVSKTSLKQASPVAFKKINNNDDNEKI

[4] = molecular target: T2, human NPY2R (Homo sapiens, UniProt P49146); conditions: at a concentration of 10 μM; cited from earlier work
T2 sequence (P49146 1-381): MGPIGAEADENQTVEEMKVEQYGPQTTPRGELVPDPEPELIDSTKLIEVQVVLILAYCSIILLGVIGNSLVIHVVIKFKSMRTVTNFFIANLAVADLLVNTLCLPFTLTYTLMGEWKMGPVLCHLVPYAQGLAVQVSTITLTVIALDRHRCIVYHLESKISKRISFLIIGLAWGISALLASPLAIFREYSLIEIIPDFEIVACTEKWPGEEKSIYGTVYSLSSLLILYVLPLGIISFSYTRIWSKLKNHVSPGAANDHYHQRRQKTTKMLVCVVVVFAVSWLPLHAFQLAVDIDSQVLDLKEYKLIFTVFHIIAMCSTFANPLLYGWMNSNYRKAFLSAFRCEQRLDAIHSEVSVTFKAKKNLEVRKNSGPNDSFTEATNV

[5] = system: Hodgkin Lymphoma cells, HD-MYZ; test: Hodgkin lymphoma xenograft model (Example 5); format: in vivo, NOD-SCID mice; conditions: 30 mg/kg ip 2/week, to day 36
Description: Hodgkin Lymphoma cells, HD-MYZ, (4 million) were injected subcutaneously on the left flank of 10-12 week old, female NOD-SCID mice (from The Jackson Lab, Cat#001303). […] The mice were sacrificed on day 36 when the experiment ended (FIG. 6).

[6] = system: MCF-7 cells; test: breast cancer xenograft model (Example 4); format: in vivo, SCID mice
Description: MCF-7 cells were dissociated from flask surfaces then counted and spun down with a final concentration of 10×10^7 cells/ml produced. A total of 20 SCID mice, aged 6-8 weeks (CRL-CB17), were injected with 10×10^6 cells into lower mammary fat pads. After 3 weeks, all mice were inspected for tumor establishment and were measured for size (FIG. 5).
For this study, a total of 15 mice were selected from a group of 20, which had similar tumor sizes (3×3). Subsequently, these 15 mice were divided into three groups of 5. The first group, the control group, received the vehicle only (20% ETOH and 80% PEG 400); the second group received a dosage of 30 mg/kg of MK0557; and the third group received a dosage of 15 mg/kg of MK0557.
All groups were injected everyday via IP for the first five days, followed by injections every other day.

[7] = molecular target: human NPY4R (Homo sapiens, UniProt P50391); conditions: at a concentration of 10 μM; cited from earlier work
Chain of human NPY4R (P50391 whole entry): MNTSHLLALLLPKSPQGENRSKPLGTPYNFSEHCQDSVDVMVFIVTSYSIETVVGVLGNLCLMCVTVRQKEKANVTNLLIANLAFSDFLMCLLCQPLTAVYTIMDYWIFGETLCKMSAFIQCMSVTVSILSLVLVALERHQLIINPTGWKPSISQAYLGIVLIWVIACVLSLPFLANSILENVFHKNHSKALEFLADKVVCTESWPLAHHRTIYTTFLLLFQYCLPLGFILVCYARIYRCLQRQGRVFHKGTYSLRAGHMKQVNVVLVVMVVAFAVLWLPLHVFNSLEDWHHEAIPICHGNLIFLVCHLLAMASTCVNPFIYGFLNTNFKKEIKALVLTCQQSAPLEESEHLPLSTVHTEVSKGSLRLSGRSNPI

In the case of `O=C1O[C@]2(CC[C@H](C(=O)Nc3ccn(-c4ccccc4F)n3)CC2)c2cnccc21` [MK-0557, trans-N-[1-(2-fluorophenyl)-3-pyrazolyl]-3-oxospiro[6 azaisobenzofuran-1(3H), 1′-cyclohexane]-4′carboxamide], the tube formation [1] is reported as “inhibits tube formation”, the “effect on mouse body weights” value ([2]; 30 mg/kg intraperitoneally) is reported as “no obvious effect” and the tumor growth ([2]; 30 mg/kg intraperitoneally daily first week then once every two days) is reported as “Tumor growth was inhibited”. For the same compound, the “binding to human NPY1R” value [3] was “does not significantly bind”, the “binding to human NPY2R” value [4] was “does not significantly bind” and the tumor growth [5] was “inhibition of tumor growth”. The mice tumor free ([6]; 30 mg/kg IP, third week) was 4 out of 5, the tumor growth ([6]; MCF-7 xenograft, 30 mg/kg and 15 mg/kg IP) was “dose-dependent inhibition of tumor growth” and the “tumor size in treated groups” value ([6]; second week, 30 mg/kg and 15 mg/kg IP) was “tumor shrinkage was noticed”. The “binding to human NPY4R” value [7] was “does not significantly bind”.
